# Tests used:
# UACC-257 = test: NCI one-dose SRB anti-proliferative screen; assay type: cell-based; conditions: Homo sapiens; UACC-257 (Melanoma), NCI one dose 10 µM; read-out: Cell growth inhibition %
# Summary of the method: (§1)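 Compounds were tested at a single 10 µM concentration within a 60-cell-line panel covering nine tumour subpanels. Growth was read colorimetrically by sulforhodamine B staining.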
# ACHN = test: NCI one-dose SRB anti-proliferative screen; assay type: cell-based; conditions: Homo sapiens; ACHN (Renal Cancer), NCI one dose 10 µM; read-out: Cell growth inhibition %
# Summary of the method: as §1
# NCI-H460 = test: NCI one-dose SRB anti-proliferative screen; assay type: cell-based; conditions: Homo sapiens; NCI-H460 (Non-Small Cell Lung Cancer), NCI one dose 10 µM; read-out: Cell growth inhibition %
# Summary of the method: as §1
# SK-MEL-2 = test: NCI one-dose SRB anti-proliferative screen; assay type: cell-based; conditions: Homo sapiens; SK-MEL-2 (Melanoma), NCI one dose 10 µM; read-out: Cell growth inhibition %
# Summary of the method: as §1
# HT29 = test: NCI one-dose SRB anti-proliferative screen; assay type: cell-based; conditions: Homo sapiens, HT-29; HT29 (Colon Cancer), NCI one dose 10 µM; read-out: Cell growth inhibition %
# Summary of the method: as §1
# HS 578T = test: NCI one-dose SRB anti-proliferative screen; assay type: cell-based; conditions: Homo sapiens; HS 578T (Breast Cancer), NCI one dose 10 µM; read-out: Cell growth inhibition %
# Summary of the method: as §1
# NCI/ADR-RES = test: NCI one-dose SRB anti-proliferative screen; assay type: cell-based; conditions: Homo sapiens; NCI/ADR-RES (Ovarian Cancer), NCI one dose 10 µM; read-out: Cell growth inhibition %
# Summary of the method: as §1
# COLO 205 = test: NCI one-dose SRB anti-proliferative screen; assay type: cell-based; conditions: Homo sapiens; COLO 205 (Colon Cancer), NCI one dose 10 µM; read-out: Cell growth inhibition %
# Summary of the method: as §1
# UACC-62 = test: NCI one-dose SRB anti-proliferative screen; assay type: cell-based; conditions: Homo sapiens; UACC-62 (Melanoma), NCI one dose 10 µM; read-out: Cell growth inhibition %
# Summary of the method: as §1
# A549/ATCC = test: NCI one-dose SRB anti-proliferative screen; assay type: cell-based; conditions: Homo sapiens; A549/ATCC (Non-Small Cell Lung Cancer), NCI one dose 10 µM; read-out: Cell growth inhibition %
# Summary of the method: as §1
# SN12C = test: NCI one-dose SRB anti-proliferative screen; assay type: cell-based; conditions: Homo sapiens, SN 12C (Renal Cancer), NCI one dose 10 µM, read-out: Cell growth inhibition %
# Summary of the method: as §1
# SK-MEL-28 = test: NCI one-dose SRB anti-proliferative screen; assay type: cell-based; conditions: Homo sapiens; SK-MEL-28 (Melanoma), NCI one dose 10 µM; read-out: Cell growth inhibition %
# Summary of the method: as §1
# SW-620 = test: NCI one-dose SRB anti-proliferative screen; assay type: cell-based; conditions: Homo sapiens; SW-620 (Colon Cancer), NCI one dose 10 µM; read-out: Cell growth inhibition %
# Summary of the method: as §1
# SF-268 = test: NCI one-dose SRB anti-proliferative screen; assay type: cell-based; conditions: Homo sapiens; SF-268 (CNS Cancer), NCI one dose 10 µM; read-out: Cell growth inhibition %
# Summary of the method: as §1
# SF-539 = test: NCI one-dose SRB anti-proliferative screen; assay type: cell-based; conditions: Homo sapiens; SF-539 (CNS Cancer), NCI one dose 10 µM; read-out: Cell growth inhibition %
# Summary of the method: as §1
# SNB-75 = test: NCI one-dose SRB anti-proliferative screen; assay type: cell-based; conditions: Homo sapiens; SNB-75 (CNS Cancer), NCI one dose 10 µM; read-out: Cell growth inhibition %
# Summary of the method: as §1
# OVCAR-3 = test: NCI one-dose SRB anti-proliferative screen; assay type: cell-based; conditions: Homo sapiens; OVCAR-3 (Ovarian Cancer), NCI one dose 10 µM; read-out: Cell growth inhibition %
# Summary of the method: as §1
# CCRF-CEM = test: NCI one-dose SRB anti-proliferative screen; assay type: cell-based; conditions: Homo sapiens; CCRF-CEM (Leukemia), NCI one dose 10 µM; read-out: Cell growth inhibition %
# Summary of the method: as §1
# M14 = test: NCI one-dose SRB anti-proliferative screen; assay type: cell-based; conditions: Homo sapiens; M14 (Melanoma), NCI one dose 10 µM; read-out: Cell growth inhibition %
# Summary of the method: as §1
# HCT-15 = test: NCI one-dose SRB anti-proliferative screen; assay type: cell-based; conditions: Homo sapiens; HCT-15 (Colon Cancer), NCI one dose 10 µM; read-out: Cell growth inhibition %
# Summary of the method: as §1
# LOX IMVI = test: NCI one-dose SRB anti-proliferative screen; assay type: cell-based; conditions: Homo sapiens, LOX IMIV (Melanoma), NCI one dose 10 µM, read-out: Cell growth inhibition %
# Summary of the method: as §1
# OVCAR-5 = test: NCI one-dose SRB anti-proliferative screen; assay type: cell-based; conditions: Homo sapiens; OVCAR-5 (Ovarian Cancer), NCI one dose 10 µM; read-out: Cell growth inhibition %
# Summary of the method: as §1
# HOP-92 = test: NCI one-dose SRB anti-proliferative screen; assay type: cell-based; conditions: Homo sapiens; HOP-92 (Non-Small Cell Lung Cancer), NCI one dose 10 µM; read-out: Cell growth inhibition %
# Summary of the method: as §1
# OVCAR-4 = test: NCI one-dose SRB anti-proliferative screen; assay type: cell-based; conditions: Homo sapiens; OVCAR-4 (Ovarian Cancer), NCI one dose 10 µM; read-out: Cell growth inhibition %
# Summary of the method: as §1
# MALME-3M = test: NCI one-dose SRB anti-proliferative screen; assay type: cell-based; conditions: Homo sapiens; MALME-3M (Melanoma), NCI one dose 10 µM; read-out: Cell growth inhibition %
# Summary of the method: as §1
# RPMI-8226 = test: NCI one-dose SRB anti-proliferative screen; assay type: cell-based; conditions: Homo sapiens; RPMI-8226 (Leukemia), NCI one dose 10 µM; read-out: Cell growth inhibition %
# Summary of the method: as §1
# HL-60(TB) = test: NCI one-dose SRB anti-proliferative screen; assay type: cell-based; conditions: Homo sapiens; HL-60(TB) (Leukemia), NCI one dose 10 µM; read-out: Cell growth inhibition %
# Summary of the method: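 Activity reflects a single-point exposure at 10 µM, with cell mass determined by a sulforhodamine B dye assay.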
# KM12 = test: NCI one-dose SRB anti-proliferative screen; assay type: cell-based; conditions: Homo sapiens; KM12 (Colon Cancer), NCI one dose 10 µM; read-out: Cell growth inhibition %
# Summary of the method: as §1
# PC-3 = test: NCI one-dose SRB anti-proliferative screen; assay type: cell-based; conditions: Homo sapiens; PC-3 (Prostate Cancer), NCI one dose 10 µM; read-out: Cell growth inhibition %
# Summary of the method: as §1
# MDA-MB-468 = test: NCI one-dose SRB anti-proliferative screen; assay type: cell-based; conditions: Homo sapiens; MDA-MB-468 (Breast Cancer), NCI one dose 10 µM; read-out: Cell growth inhibition %
# Summary of the method: as §1
# DU-145 = test: NCI one-dose SRB anti-proliferative screen; assay type: cell-based; conditions: Homo sapiens; DU-145 (Prostate Cancer), NCI one dose 10 µM; read-out: Cell growth inhibition %
# Summary of the method: as §1
SMILES,melting point,inhibition at 10 µM (UACC-257),inhibition at 10 µM (ACHN),inhibition at 10 µM (NCI-H460),inhibition at 10 µM (SK-MEL-2),inhibition at 10 µM (HT29),inhibition at 10 µM (HS 578T),inhibition at 10 µM (NCI/ADR-RES),inhibition at 10 µM (COLO 205),inhibition at 10 µM (UACC-62),inhibition at 10 µM (A549/ATCC),inhibition at 10 µM (SN12C),inhibition at 10 µM (SK-MEL-28),inhibition at 10 µM (SW-620),inhibition at 10 µM (SF-268),inhibition at 10 µM (SF-539),inhibition at 10 µM (SNB-75),inhibition at 10 µM (OVCAR-3),inhibition at 10 µM (CCRF-CEM),inhibition at 10 µM (M14),other results
"COc1cc(-c2nc3cc(-c4nnc(SCC(=O)Nc5ccc(C(=O)/C=C/c6ccccc6)cc5)o4)ccc3[nH]2)cc(OC)c1OC [Compound 7u, 2-{5-[2-(3,4,5-Trimethoxyphenyl)-1 H-benzo[d]imidazol-5-yl]-1,3,4-oxadiazol-2-ylthio}-N-{4-[(E)-3-phenylacryloyl]phenyl}acetamide]",188 to 190 °C,0%,1.08%,0%,0%,0%,9.37%,0%,0%,8.01%,0.78%,13.2%,0%,0%,0%,13.3%,13.8%,0%,21.9%,0%,inhibition at 10 µM (HCT-15): 12.3%; inhibition at 10 µM (LOX IMVI): 22%; inhibition at 10 µM (OVCAR-5): 0%; inhibition at 10 µM (HOP-92): 9.74%; inhibition at 10 µM (OVCAR-4): 0%; inhibition at 10 µM (MALME-3M): 2.82%; inhibition at 10 µM (RPMI-8226): 24.2%; inhibition at 10 µM (HL-60(TB)): 5.25%; inhibition at 10 µM (KM12): 0.98%; inhibition at 10 µM (PC-3): 9.18%; inhibition at 10 µM (MDA-MB-468): 0%; inhibition at 10 µM (DU-145): 0%
"O=C(CSc1nnc(-c2ccc3[nH]c(-c4ccc(Cl)cc4)nc3c2)o1)Nc1ccc(C(=O)/C=C/c2ccccc2)cc1 [Compound 7f, 2-{5-[2-(4-Chlorophenyl)-1 H-benzo[d]imidazol-5-yl]-1,3,4-oxadiazol-2-ylthio}-N-{4-[(E)-3-phenylacryloyl]phenyl}acetamide]",161 to 163 °C,0%,0%,0%,0%,0%,0%,0%,0%,5.12%,0%,0%,0%,0%,0%,2.1%,1.75%,0%,0%,0%,inhibition at 10 µM (HCT-15): 0%; inhibition at 10 µM (LOX IMVI): 22.9%; inhibition at 10 µM (OVCAR-5): 0%; inhibition at 10 µM (HOP-92): 0%; inhibition at 10 µM (OVCAR-4): 0%; inhibition at 10 µM (MALME-3M): 3.93%; inhibition at 10 µM (RPMI-8226): 23.2%; inhibition at 10 µM (HL-60(TB)): 0%; inhibition at 10 µM (KM12): 0%; inhibition at 10 µM (PC-3): 0%; inhibition at 10 µM (MDA-MB-468): 0%; inhibition at 10 µM (DU-145): 0%

# From article PMC10504751, “Chalcone/1,3,4-Oxadiazole/Benzimidazole hybrids as novel anti-proliferative agents inducing apoptosis and inhibiting EGFR & BRAFV^600E” (BMC Chemistry, 2023)
